Reference: patent publication US12390423B2 (priority 2019, dated 2025)

Columns and labels:
C2C12 myotubes [1] = experiment: Mitochondrial ROS (MitoSOX) and membrane potential (JC-1) in C2C12 myotubes; type: cell-based, mouse; conditions: 25 μM AvoB, 0.5 mM palmitate, 24 h
Protocol: For all ROS studies, INS-1 (832/13) cells and C2C12 myotubes were treated with or without palmitate and FAO inhibitors for 24 h in low glucose cell culture media as described for the FAO assay. After treatment, cells were trypsinized and re-suspended in PBS containing 5 μM of the fluorescent dye MitoSOX® (Molecular Probes, Invitrogen) and allowed to incubate for 5-15 minutes in a humidified atmosphere containing 5% CO2 at 37° C. Cells were then washed in PBS, placed in a 96 well plate and fluorescence was measured by flow cytometry. ROS was quantified by normalizing the mean fluorescence values of live gated cells to vehicle control. Mitochondrial membrane potential (MMP) in INS-1 (832/13) and C2C12 myotubes was measured using the cationic fluorescent dye JC-1 (Molecular Probes). […] JC-1 fluoresces green in the cytosol where it exists as a monomer, after entering the mitochondria JC-1 monomers form J aggregates and fluoresce red, thus the red/green fluorescence ratio is used to determine MMP. […] Cells were then washed in PBS, placed in a 96 well plate and fluorescence was measured by flow cytometry. MMP was quantified by normalizing the mean fluorescence values of live gated cells to vehicle control. […] Cells were treated, washed and collected as described and incubated with 0.35 μM NAO and green fluorescence was measured using flow cytometry. […]

C2C12 myotubes [2] = experiment: High resolution respirometry in C2C12 myotubes; type: cell-based, mouse; conditions: 25 μM AvoB
Protocol: Cells treated with test compounds for 24 h were trypsinized, counted, and resuspended in phosphate buffer saline (PBS). High-resolution O2 consumption measurements were conducted in 2 ml of respiration medium (PBS, pH 7.5, stir speed 750 rpm) using the Oroboros Oxygraph-2k (Oroboros Instruments, Corp., Innsbruck, Austria) set to 37° C. with a gain of 2 in both chambers. Briefly, after the injection of 5 million treated INS-1 (832/13) cells or C2C12 myotubes per chamber, basal respiration was measured once steady-state respiratory flux was obtained; this represents coupled respiration fueled by available substrates from the incubation with test compounds. Uncoupled respiration was then measured following addition of the ATP synthase inhibitor oligomycin (0.25 μM). This was followed by measuring maximal respiratory rate by stepwise titration of carbonyl cyanide p-trifluoromethoxy phenyl hydrazone (FCCP; within 0.1-0.25 μM) in the presence of 1 mmol/L pyruvate. […] Data was recorded with DatLab software (Oroboros Instruments, Innsbruck, Austria), oxygen consumption at each step of the protocol was normalized to vehicle control and illustrated in histograms. For all HRR protocols, cell viability was determined after trypsinization and also after end of HRR runs via trypan blue cell staining and counting using a hemocytometer. […]

[3] = test system: pyruvate dehydrogenase (PDH); experiment: Pyruvate dehydrogenase (PDH) activity assay, gastrocnemius muscle lysates of DIO mice; type: in vivo, C57BL/6J mice; conditions: ad libitum HFD mice, AvoB 100 mg/kg b.w. twice weekly, endpoint
Protocol: After mice were euthanized, muscle tissues were freeze-clamped and flash-frozen in liquid nitrogen. The PDH activity from flash-frozen whole gastrocnemius muscle lysates was measured using a colorimetric microplate assay kit (ab109902, Abcam, Cambridge, MA, USA) following the manufacturer's protocol and as previously described (see reference number 12). Briefly, PDH proteins from whole gastrocnemius muscle lysates (lysed in the presence of 10 mM sodium fluoride (NaF) preserve the phosphorylated status of PDH or to determine native PDH activity as a result of HFD feeding) were immunocaptured on a microplate by loading equal amounts of protein for each sample. PDH activity was then determined spectrophotometrically by monitoring the reduction of NAD+ to NADH, coupled to the reduction of a reporter dye at an absorbance of 450 nm.

avocatin B [AvoB]
Mitochondrial membrane potential (MMP, JC-1) (C2C12 myotubes [1]): lowers palmitate induced increases
Mitochondrial superoxide levels (MitoSOX Red) (C2C12 myotubes [1]): lowers palmitate induced increases in mitochondrial superoxide levels
Glucose oxidation by HRR after 10 mM glucose (metabolic flexibility) (C2C12 myotubes [2]; 0.25 mM palmitate 24 h, then 10 mM glucose 15 min): increased
Palmitate supported respiration (OCR, HRR) (C2C12 myotubes [2]; 0.25 mM palmitate-BSA/1 mM L-carnitine, 24 h): inhibited palmitate supported basal and maximal-uncoupled respiration
Native PDH activity in gastrocnemius muscle [3]: restored to that of lean, STD mice
